Test results reported in US12581252B2, “Substituted pyrrolo[3,4-b]pyridines as PI3K-α inhibitors” (Relay Therapeutics, Inc., priority 2020, dated 2026).

Target: H1047R PIK3CA enzyme (Homo sapiens, UniProt P42336, H1047R)
Assay: ADP-Glo Biochemical PIK3CA Kinase Assay
Method: Compounds to be assayed were plated in 16 doses of 1:2 serial dilutions (20 nL volume each well) on a 1536-well plate, and the plate warmed to room temperature. […] To the well was added 1 μL of 200 μM ATP and 20 μM of diC8-PIP2 in Substrate Assay Buffer (50 mM HEPES pH7.4, 50 mM NaCl, 5 mM DTT and 0.03% CHAPS) to start the reaction, and the plate was shaken for 10 seconds, then spun briefly at 1500 rpm, and then incubated for 60 minutes at room temperature. The reaction was stopped by adding 2 μL of ADP-Glo reagent (Promega), and spinning briefly at 1500 rpm, and then incubating for 40 minutes. ADP-Glo Detection reagent (Promega) was added and the plate spun briefly at 1500 rpm, then incubated for 30 minutes.

Sequence of H1047R PIK3CA enzyme (P42336 whole entry H1047R): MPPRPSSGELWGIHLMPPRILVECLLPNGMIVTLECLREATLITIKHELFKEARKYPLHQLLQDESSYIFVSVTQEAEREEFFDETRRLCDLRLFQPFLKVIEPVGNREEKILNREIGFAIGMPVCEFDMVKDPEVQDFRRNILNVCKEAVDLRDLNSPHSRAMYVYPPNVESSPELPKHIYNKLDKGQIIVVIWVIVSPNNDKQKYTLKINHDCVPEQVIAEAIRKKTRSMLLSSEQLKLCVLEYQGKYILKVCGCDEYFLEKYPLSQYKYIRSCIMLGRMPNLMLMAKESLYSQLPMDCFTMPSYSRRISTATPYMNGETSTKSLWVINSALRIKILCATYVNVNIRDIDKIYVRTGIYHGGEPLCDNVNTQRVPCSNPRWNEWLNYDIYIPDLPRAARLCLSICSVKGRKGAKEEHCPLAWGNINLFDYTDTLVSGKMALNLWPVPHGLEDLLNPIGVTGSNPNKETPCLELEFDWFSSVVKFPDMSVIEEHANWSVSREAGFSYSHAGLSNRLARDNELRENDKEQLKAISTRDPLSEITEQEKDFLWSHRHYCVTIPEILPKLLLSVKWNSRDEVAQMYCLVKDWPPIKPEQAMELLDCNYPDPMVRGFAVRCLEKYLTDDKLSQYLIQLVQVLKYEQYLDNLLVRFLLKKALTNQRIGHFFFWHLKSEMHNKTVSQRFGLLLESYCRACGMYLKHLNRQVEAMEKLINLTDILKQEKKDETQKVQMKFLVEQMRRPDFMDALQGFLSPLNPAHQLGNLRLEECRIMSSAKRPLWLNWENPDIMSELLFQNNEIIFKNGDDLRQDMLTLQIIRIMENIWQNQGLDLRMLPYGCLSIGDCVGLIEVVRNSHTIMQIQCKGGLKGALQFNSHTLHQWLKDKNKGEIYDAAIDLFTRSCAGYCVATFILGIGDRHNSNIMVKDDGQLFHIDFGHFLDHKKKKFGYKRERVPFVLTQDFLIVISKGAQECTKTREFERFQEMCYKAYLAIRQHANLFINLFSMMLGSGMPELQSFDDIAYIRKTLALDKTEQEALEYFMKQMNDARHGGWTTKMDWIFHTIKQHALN
Sequence of H1047R PIK3CA enzyme (P27986 whole entry partner): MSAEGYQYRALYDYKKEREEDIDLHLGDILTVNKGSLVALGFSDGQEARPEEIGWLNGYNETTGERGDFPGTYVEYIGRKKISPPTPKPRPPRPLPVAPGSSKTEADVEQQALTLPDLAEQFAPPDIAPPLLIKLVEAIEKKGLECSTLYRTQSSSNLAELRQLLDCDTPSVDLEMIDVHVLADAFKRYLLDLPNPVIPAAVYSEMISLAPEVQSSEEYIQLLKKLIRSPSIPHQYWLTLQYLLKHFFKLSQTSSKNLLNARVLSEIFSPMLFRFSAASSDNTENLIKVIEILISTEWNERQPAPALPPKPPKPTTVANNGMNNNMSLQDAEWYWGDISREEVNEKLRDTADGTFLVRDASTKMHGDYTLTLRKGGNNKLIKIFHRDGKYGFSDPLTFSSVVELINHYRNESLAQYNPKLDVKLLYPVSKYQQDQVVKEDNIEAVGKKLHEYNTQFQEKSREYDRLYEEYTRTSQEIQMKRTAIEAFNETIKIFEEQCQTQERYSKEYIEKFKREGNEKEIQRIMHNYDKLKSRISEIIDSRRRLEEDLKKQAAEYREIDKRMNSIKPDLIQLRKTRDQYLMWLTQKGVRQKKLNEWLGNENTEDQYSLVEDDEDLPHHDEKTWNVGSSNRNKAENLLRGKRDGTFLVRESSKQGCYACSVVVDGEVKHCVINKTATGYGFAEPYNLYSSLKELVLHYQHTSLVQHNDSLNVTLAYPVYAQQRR

Row | IC50 [µM] | SMILES
1 | 0.5 to 1 | N#CCc1cc(NC(=O)N2C[C@@](O)(C(F)(F)F)c3cc(F)ccc32)c2c(c1)C(=O)N[C@@H]2c1cc(F)ccc1Cl (single isomer, unassigned) [Compound I-2626]
2 | ≤ 0.1 | O=C(Nc1cc(C[n+]2ccccc2)cc2c1[C@H](c1cc(F)ccc1Cl)NC2=O)c1cc(F)cc(C(F)(F)F)c1 (racemic) [Compound I-1321]
3 | 1 to 10 | NC(=O)Cn1nc(Nc2cc(-c3ccc4ncnn4c3)cc3c2C(c2cc(F)ccc2Cl)NC3=O)c2ccccc21 (stereo not shown) [Compound I-1806]
4 | ≤ 0.1 | O=C(Nc1cc(-c2ccnn2C2COC2)cc2c1C(c1cc(F)ccc1Cl)NC2=O)c1cc(F)cc(C(F)(F)F)c1 (stereo not shown) [Compound I-1037]
5 | 0.1 to 0.5 | CN1CCO/C1=N\c1cc(NC(=O)c2cc(F)cc(C(F)(F)F)c2)c2c(c1)C(=O)NC2c1cc(F)ccc1Cl (stereo not shown) [Compound I-2202]
6 | ≤ 0.1 | Cn1nc(C(F)F)cc1-c1cc(NC(=O)c2cc(F)cc(C(F)(F)F)c2)c2c(c1)C(=O)NC2c1cc(F)ccc1Cl (stereo not shown) [Compound I-1839]
7 | 10 to 100 | Cn1nc2ccccc2c1Nc1cc(-c2ccc3ncnn3c2)cc2c1C(c1cc(F)ccc1Cl)NC2=O (stereo not shown) [Compound I-1841]
8 | ≤ 0.1 | O=C(Nc1cc(-c2ccn3ncnc3c2)cc2c1C(c1cc(F)ccc1Cl)NC2=O)c1cc(F)cc(C(F)(F)F)c1 (stereo not shown) [Compound I-1371]
9 | 0.1 to 0.5 | O=C1NC(c2ccccc2Cl)c2c(NC(=O)c3nsc4ccccc34)cc(-c3cn[nH]c3)nc21 (stereo not shown) [Compound I-94, N-(5-(2-Chlorophenyl)-7-oxo-2-(1H-pyrazol-4-yl)-6,7-dihydro-5H-pyrrolo[3,4-b]pyridin-4-yl)benzo[d]isothiazole-3-carboxamide]
10 | 1 to 10 | CN1C[C@@H](COc2cc(NC(=O)c3cc(F)cc(C(F)(F)F)c3)c3c(c2)C(=O)N[C@@H]3c2cc(F)ccc2Cl)CC1=O (single isomer, unassigned) [Compound I-1523]
11 | ≤ 0.1 | O=C(Nc1cc(-c2ccc3ncnn3c2)cc2c1[C@H](c1cc(F)ccc1Cl)NC2=O)c1cc(F)c(F)c(Cl)c1 (stereo in doubt) [Compound I-1173]
12 | 10 to 100 | O=C(Nc1cccc2c1C(c1cccc(Br)c1)NC2=O)c1cc(F)cc(C(F)(F)F)c1 (stereo not shown) [Compound I-663]
13 | ≤ 0.1 | COc1cnccc1-c1cc(NC(=O)c2cc(F)cc(C(F)(F)F)c2)c2c(c1)C(=O)NC2c1cc(F)ccc1Cl (stereo not shown) [Compound I-1219]
14 | 1 to 10 | COc1cccc(-c2cc(NC(=O)c3cc(F)cc(C(F)(F)F)c3)c3c(c2)C(=O)N[C@@H]3c2cc(F)ccc2Cl)n1 (stereo in doubt) [Compound I-1007]
15 | 10 to 100 | O=C1NC(c2ccccc2C(F)(F)F)c2c(NC(=O)c3nsc4ccccc34)cccc21 (stereo not shown) [Compound I-221]
16 | ≤ 0.1 | O=C(Nc1cc(C2CCCN2)cc2c1C(c1cc(F)ccc1Cl)NC2=O)c1cc(F)cc(C(F)(F)F)c1 (stereo not shown) [Compound I-1218]
17 | ≤ 0.1 | COc1cnc2ccc(-c3cc(NC(=O)c4cc(F)cc(C(F)(F)F)c4)c4c(c3)C(=O)NC4c3cc(F)ccc3Cl)cc2c1 (stereo not shown) [Compound I-1602]
18 | 1 to 10 | Cn1ccc2ccc(C(=O)Nc3cc(Br)cc4c3C(c3cc(F)ccc3Cl)NC4=O)cc21 (stereo not shown) [Compound I-668]
19 | 0.1 to 0.5 | O=C1NC(c2cc(F)ccc2Cl)c2c(NC(=O)n3ncc4ccccc43)cccc21 (stereo not shown) [Compound I-2373]
20 | 1 to 10 | C[C@H](c1cc(NC(=O)c2cc(F)cc(C(F)(F)F)c2)c2c(c1)C(=O)N[C@@H]2c1cc(F)ccc1Cl)S(C)(=O)=O (single isomer, unassigned) [Compound I-1643]

Row | IC50 [µM] | SMILES
21 | 1 to 10 | COc1ccccc1C1NC(=O)c2cccc(NC(=O)c3csc4ccccc34)c21 (stereo not shown) [Compound I-18]
22 | 0.1 to 0.5 | O=C(Nc1cnc(N2CC(F)(F)C2)c2c1C(c1cc(F)ccc1Cl)NC2=O)c1cc(F)cc(C(F)(F)F)c1 (stereo not shown) [Compound I-320]
23 | 0.1 to 0.5 | O=C1N[C@@H](c2cc(F)ccc2Cl)c2c(NC(=O)N3C[C@H](O)c4cc(F)ccc43)cc(-n3nccn3)cc21 (single isomer, unassigned) [Compound I-2342]
24 | 1 to 10 | O=C1NC(c2cc(F)ccc2Cl)c2c(NC(=O)C34CC5CC(CC(O)(C5)C3)C4)cc(Br)cc21 (stereo not shown) [Compound I-1363]
25 | ≤ 0.1 | CC(C)(O)Cc1cc(NC(=O)c2cc(F)cc(Cl)c2)c2c(c1)C(=O)NC2c1cc(F)ccc1Cl (stereo not shown) [Compound I-645]
26 | 10 to 100 | Cc1ccccc1C1NCCc2cccc(NC(=O)c3cc(F)cc(C(F)(F)F)c3)c21 (stereo not shown) [Compound I-1962]
27 | 0.1 to 0.5 | Cc1ccccc1C1NC(=O)c2cccc(NC(=O)N3CCc4ccc(Cl)cc43)c21 (stereo not shown) [Compound I-110]
28 | ≤ 0.1 | CC(C)(O)c1cc(NC(=O)N2CCc3ccccc32)c2c(c1)C(=O)NC2c1cc(F)ccc1Cl (stereo not shown) [Compound I-308]
29 | 10 to 100 | O=C(Nc1cc(-c2ccc3ncnn3c2)cc2c1C(c1cc(F)ccc1Cl)NC2=O)c1cc(CO)cc(C(F)(F)F)c1 (stereo not shown) [Compound I-1773]
30 | ≤ 0.1 | O=C(Nc1cc(-n2ccnn2)cc2c1C(c1cc(F)ccc1Cl)NC2=O)c1cc(F)cc(C(F)(F)F)c1 (stereo not shown) [Compound I-2148]
31 | ≤ 0.1 | CC(C)n1cc(-c2cc(NC(=O)c3cc(F)cc(C(F)(F)F)c3)c3c(n2)C(=O)NC3c2cc(F)ccc2Cl)ccc1=O (stereo not shown) [Compound I-593]
32 | 0.5 to 1 | COc1cc(C(=O)Nc2cccc3c2C(c2ccccc2C)NC3=O)cc(F)c1F (stereo not shown) [Compound I-317]
33 | ≤ 0.1 | Nc1ncc(C#Cc2cc(NC(=O)c3cc(F)cc(C(F)(F)F)c3)c3c(c2)C(=O)NC3c2cc(F)ccc2Cl)cn1 (stereo not shown) [Compound I-1153]
34 | ≤ 0.1 | CC(C)(C#N)n1cc(-c2cc(NC(=O)c3cc(F)cc(C(F)(F)F)c3)c3c(c2)C(=O)N[C@H]3c2cc(F)ccc2Cl)cn1 (racemic) [Compound I-1661]
35 | ≤ 0.1 | O=C(Nc1cc(OCc2cccnc2)cc2c1C(c1cc(F)ccc1Cl)NC2=O)c1cc(F)cc(C(F)(F)F)c1 (stereo not shown) [Compound I-1412]
36 | 1 to 10 | CNc1cc(NC(=O)N2C[C@@](O)(C(F)(F)F)c3cc(F)ccc32)c2c(n1)C(=O)N[C@@H]2c1cc(F)ccc1Cl (single isomer, unassigned) [Compound I-2645]
37 | 10 to 100 | O=C1NC(c2cc(F)ccc2Cl)c2c(NC(=O)C3CC(O)C3)cc(-c3ccc4ncnn4c3)cc21 (stereo not shown) [Compound I-1664]
38 | 10 to 100 | O=C1N[C@H](c2cc(F)ccc2Cl)c2c(NC(=O)[C@H]3CC[C@@H](O)C3)cc(Br)cc21 (single isomer, unassigned) [Compound I-2103]
39 | 1 to 10 | CC1(Cc2cc(NC(=O)c3cc(F)cc(C(F)(F)F)c3)c3c(c2)C(=O)N[C@@H]3c2cc(F)ccc2Cl)COC1 [Compound I-817]
40 | 10 to 100 | O=C1NC(c2cc(F)ccc2Cl)c2c(NC(=O)N3CCC(O)(C(F)(F)F)C3)cc(-c3ccc4ncnn4c3)cc21 (stereo not shown) [Compound I-1904]

Row | IC50 [µM] | SMILES
41 | 1 to 10 | O=C1N[C@@H](c2cc(F)ccc2Cl)c2c(NC(=O)N3C[C@@H](CO)[C@H](C(F)(F)F)C3)cccc21 (single isomer, unassigned) [Compound I-2277]
42 | 10 to 100 | O=C1N[C@H](c2cc(F)ccc2Cl)c2c(NC(=O)N3C[C@@H](O)C[C@@H]3CC(F)(F)F)cccc21 (racemic) [Compound I-2165]
43 | 1 to 10 | Cc1cc2cccc(C(=O)Nc3cc(Br)cc4c3C(c3cc(F)ccc3Cl)NC4=O)c2o1 (stereo not shown) [Compound I-635]
44 | 10 to 100 | O=C1NC(c2cc(F)ccc2Cl)c2c(CS(=O)(=O)c3ccccc3)cc(-c3ccc4ncnn4c3)cc21 (stereo not shown) [Compound I-1728]
45 | 0.1 to 0.5 | Cc1ccccc1-n1[nH]c(=O)c2cccc(NC(=O)c3coc4c(F)cc(Cl)cc34)c21 [Compound I-252]
46 | ≤ 0.1 | O=C(Nc1cc(CS(=O)(=O)Cc2cc[n+]([O-])cc2)cc2c1C(c1cc(F)ccc1Cl)NC2=O)c1cc(F)cc(C(F)(F)F)c1 (stereo not shown) [Compound I-1471]
47 | ≤ 0.1 | O=C(Nc1cc(Br)cc2c1C(c1cc(F)cc(F)c1Cl)NC2=O)c1cc(F)cc(C(F)(F)F)c1 (stereo not shown) [Compound I-807]
48 | 0.5 to 1 | Cc1ccccc1C1NC(=O)c2cccc(NC(=O)c3cc(F)cc(OC(F)(F)F)c3)c21 (stereo not shown) [Compound I-318]
49 | ≤ 0.1 | Cn1nccc1Cc1cc(NC(=O)c2cc(F)cc(C(F)(F)F)c2)c2c(c1)C(=O)NC2c1cc(F)ccc1Cl (stereo not shown) [Compound I-1293]
50 | ≤ 0.1 | O=C(NCCC(O)CO)c1cc(NC(=O)c2cc(F)cc(C(F)(F)F)c2)c2c(c1)C(=O)NC2c1cc(F)ccc1Cl (stereo not shown) [Compound I-1493]
51 | 1 to 10 | O=C(Nc1cccc2c1C(C1CCCCC13CC3)NC2=O)c1cc(F)cc(C(F)(F)F)c1 (racemic) [Compound I-1912]
52 | 10 to 100 | O=C1N[C@H](c2cc(F)ccc2Cl)c2c(NC(=O)N3C[C@@H](O)c4cc(F)ccc43)cc(-c3cnn(C(F)F)c3)cc21 (single isomer, unassigned) [Compound I-2476]
53 | ≤ 0.1 | O=C(Nc1cc(-c2ccc3ncc(F)n3c2)cc2c1[C@H](c1cc(F)ccc1Cl)NC2=O)c1cc(F)cc(C(F)(F)F)c1 [Compound I-1870]
54 | ≤ 0.1 | CN=S(C)(=O)Cc1cc(NC(=O)c2cc(F)cc(C(F)(F)F)c2)c2c(c1)C(=O)NC2c1cc(F)ccc1Cl (stereo not shown) [Compound I-1434]
55 | ≤ 0.1 | N#Cc1cnc2cnc(-c3cc(NC(=O)c4cc(F)cc(C(F)(F)F)c4)c4c(c3)C(=O)NC4c3cc(F)ccc3Cl)cn12 (stereo not shown) [Compound I-1767]
56 | ≤ 0.1 | O=C(Nc1cc(-c2ccc3ncnn3c2)cc2c1C(c1cc(F)ccc1Cl)NC2=O)c1cc(F)cc(C(F)(F)F)c1 (stereo not shown) [Compound I-824]
57 | 1 to 10 | [2H]C1([2H])N(C(=O)Nc2cccc3c2[C@@H](c2cc(F)ccc2Cl)NC3=O)c2ccc(F)cc2[C@]1(O)C(F)(F)F (single isomer, unassigned) [Compound I-2592]
58 | 10 to 100 | Cc1ccc2c(c1)CCN2C(=O)Nc1cccc2c1C(c1cc(F)ccc1Cl)NC2=O (stereo not shown) [Compound I-2440]
